The test relates to P388 leukemia ip, CD2F1 mice, survival T/C. As to the kind of experiment: NCI In Vivo Anticancer Drug Screen. Data for tumor model P388 Leukemia (intraperitoneal) in CD2F1 (CDF1) mice. The settings on record: endpoint: median survival time, higher = longer survival. The method, boiled down: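 Mice carrying the transplanted tumor received test compound or vehicle. Survival was recorded in each group, and the value is the treated-group measurement divided by that of the vehicle-treated control group.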

Where [1] appears, read: dose: 60.0 mg/kg/injection, schedule: Q01DX005 (ip), vehicle: Klucel (hydroxypropylcellulose) (HPC).
The mark [2] stands for this setting: dose: 120.0 mg/kg/injection, schedule: Q01DX005 (ip), vehicle: Klucel (hydroxypropylcellulose) (HPC).
The mark [3] stands for this setting: dose: 240.0 mg/kg/injection, schedule: Q01DX005 (ip), vehicle: Klucel (hydroxypropylcellulose) (HPC).
Where [4] appears, read: dose: 60.0 mg/kg/injection, schedule: Q01DX005 (ip), vehicle: saline with Tween-80.
[5] abbreviates: dose: 50.0 mg/kg/injection, schedule: Q01DX009 (ip), vehicle: saline with Tween-80.
Where [6] appears, read: dose: 100.0 mg/kg/injection, schedule: Q01DX009 (ip), vehicle: saline with Tween-80.
[7] abbreviates: dose: 100.0 mg/kg/injection, schedule: Q04DX003 (ip), vehicle: saline with Tween-80.
[8] abbreviates: dose: 200.0 mg/kg/injection, schedule: Q01DX009 (ip), vehicle: saline with Tween-80.
Setting [9] is: dose: 200.0 mg/kg/injection, schedule: Q04DX003 (ip), vehicle: saline with Tween-80.
[10] abbreviates: dose: 400.0 mg/kg/injection, schedule: Q04DX003 (ip), vehicle: saline with Tween-80.
Where [11] appears, read: dose: 25.0 mg/kg/injection, schedule: Q01DX009 (ip), vehicle: saline.
Where [12] appears, read: dose: 50.0 mg/kg/injection, schedule: Q01DX009 (ip), vehicle: saline.
Where [13] appears, read: dose: 50.0 mg/kg/injection, schedule: Q01DX009 (ip), vehicle: Klucel (hydroxypropylcellulose) (HPC).
The mark [14] stands for this setting: dose: 100.0 mg/kg/injection, schedule: Q01DX009 (ip), vehicle: Klucel (hydroxypropylcellulose) (HPC).
[15] abbreviates: dose: 200.0 mg/kg/injection, schedule: Q01DX009 (ip), vehicle: Klucel (hydroxypropylcellulose) (HPC).
[16] abbreviates: dose: 50.0 mg/kg/injection, schedule: Q01DX005 (ip), vehicle: Klucel (hydroxypropylcellulose) (HPC).
Setting [17] is: dose: 100.0 mg/kg/injection, schedule: Q01DX005 (ip), vehicle: Klucel (hydroxypropylcellulose) (HPC).
Setting [18] is: dose: 200.0 mg/kg/injection, schedule: Q01DX005 (ip), vehicle: Klucel (hydroxypropylcellulose) (HPC).
The mark [19] stands for this setting: dose: 120.0 mg/kg/injection, schedule: Q01DX005 (ip), vehicle: saline with Tween-80.
The mark [20] stands for this setting: dose: 100.0 mg/kg/injection, schedule: Q01DX001 (ip), vehicle: Klucel (hydroxypropylcellulose) (HPC).

23 molecules from PubChem BioAssay AID330 (DTP/NCI, 2004) can be followed below.

Several values for one entry are separate records, joined by “and”; a condition that tells them apart may be missing. Equal entries are not always repeated. Toxic doses and inconclusive results are not listed.

With `CNC(=O)OCC[N+](C)(C)C`, the T/C runs as follows: (dose: 3.12 mg/kg/injection, schedule: Q01DX009 (ip), vehicle: saline) 101 % of control; (dose: 6.25 mg/kg/injection, schedule: Q01DX009 (ip), vehicle: saline) 101 % of control.
As for `Cc1ccc(N=CNN(C)S(=O)(=O)c2ccc(C)cc2)cc1`, the T/C is, setting by setting: under setting [1], 92 % of control; under setting [2], 108 % of control; under setting [3], 90 % of control.
Consider `Nc1nc(CC(N)C(=O)O)c[se]1` (stereo not drawn), for which the T/C is 97 % of control (dose: 60.0 mg/kg/injection, schedule: Q01DX005 (ip), vehicle: saline); 100 % of control (dose: 120.0 mg/kg/injection, schedule: Q01DX005 (ip), vehicle: saline); 100 % of control (dose: 240.0 mg/kg/injection, schedule: Q01DX005 (ip), vehicle: saline).
For `COC(=O)C1C(c2ccccc2)C1(C#N)C#N` (stereo not drawn), the T/C by setting is: under setting [1], 96 % of control; under setting [2], 106 % of control; under setting [3], 98 % of control.
As for `CCOC(=O)CC(CS(=O)CP(=O)(OCC)OCC)C(=O)OCC` (stereo not drawn), the T/C was 91 % of control (dose: 7.5 mg/kg/injection, schedule: Q01DX005 (ip), vehicle: saline with Tween-80); 92 % of control (dose: 15.0 mg/kg/injection, schedule: Q01DX005 (ip), vehicle: saline with Tween-80); 102 % of control (dose: 30.0 mg/kg/injection, schedule: Q01DX005 (ip), vehicle: saline with Tween-80); 102 % of control and 110 % of control under setting [4].
In the case of `C[C@H]1C[C@@H]2[C@H]([C@@H](O)C[C@@]3(C)[C@H]2CC[C@]3(O)C(=O)CO)[C@@]2(C)C=CC(=O)C=C12`, the T/C was 100 % of control under setting [5]; 95 % of control (dose: 66.0 mg/kg/injection, schedule: Q01DX009 (ip), vehicle: saline with Tween-80); 100 % of control under setting [6]; 106 % of control and 112 % of control under setting [7]; 109 % of control (dose: 132.0 mg/kg/injection, schedule: Q04DX003 (ip), vehicle: saline with Tween-80); 90 % of control (dose: 150.0 mg/kg/injection, schedule: Q01DX009 (ip), vehicle: saline with Tween-80). For the same molecule, the T/C runs as follows: under setting [8], 97 % of control; under setting [9], 108 % of control and 109 % of control; (dose: 300.0 mg/kg/injection, schedule: Q04DX003 (ip), vehicle: saline with Tween-80) 95 % of control; under setting [10], 104 % of control and 108 % of control.
Consider `COc1ccc(C2OC3=Nc4ccccc4NC3C2=O)cc1OC` (stereo not drawn), for which the T/C under setting [1] is 107 % of control, the T/C under setting [2] is 105 % of control and the T/C under setting [3] is 100 % of control.
For the molecule `CCCCCC(CN(C)C)C(=O)/C=C/c1ccc(F)cc1` (stereo not drawn), the T/C was 98 % of control (dose: 12.5 mg/kg/injection, schedule: Q01DX005 (ip), vehicle: saline with Tween-80); 104 % of control (dose: 25.0 mg/kg/injection, schedule: Q01DX005 (ip), vehicle: saline with Tween-80); 107 % of control and 118 % of control (dose: 50.0 mg/kg/injection, schedule: Q01DX005 (ip), vehicle: saline with Tween-80); 103 % of control (dose: 100.0 mg/kg/injection, schedule: Q01DX005 (ip), vehicle: saline with Tween-80).
In the case of `CCc1ccc(S(=O)(=O)O)cc1`, the T/C was 100 % of control under setting [5], 94 % of control under setting [6] and 98 % of control under setting [8].
As for `COc1ccc(OCC2CN(C)CCC2c2ccccc2)cc1` (stereo not drawn), the T/C by setting is: (dose: 12.5 mg/kg/injection, schedule: Q01DX009 (ip), vehicle: saline) 99 % of control; under setting [11], 100 % of control; under setting [12], 101 % of control and 94 % of control.
Take `O=C(N/N=C\c1ccc(O)cc1O)C(=O)N/N=C\c1ccc(O)cc1O`: the T/C is, setting by setting: under setting [13], 98 % of control; under setting [14], 105 % of control; under setting [15], 100 % of control.
For `Nc1nc(=O)[nH]s1`, the T/C (dose: 6.25 mg/kg/injection, schedule: Q01DX009 (ip), vehicle: saline with Tween-80) is 98 % of control; the T/C (dose: 12.5 mg/kg/injection, schedule: Q01DX009 (ip), vehicle: saline with Tween-80) is 87 % of control and 94 % of control; the T/C under setting [6] is 95 % of control; the T/C under setting [8] is 90 % of control.
Take `N#Cc1c(C(F)(F)F)cc(-c2cccs2)nc1C(C(=O)Nc1cc(Cl)c(Cl)cc1Cl)c1ccccc1` (stereo not drawn): the T/C is 87 % of control under setting [16], 92 % of control under setting [17] and 91 % of control under setting [18].
As to `COc1cc([N+](=O)[O-])cc2cc(C)c(=O)oc12`, the T/C by setting is: under setting [5], 99 % of control; under setting [6], 91 % of control; under setting [8], 91 % of control.
As for `Fc1ccc(C(Nc2nncs2)Nc2nncs2)cc1F`, the T/C by setting is: under setting [4], 101 % of control; under setting [19], 101 % of control; (dose: 240.0 mg/kg/injection, schedule: Q01DX005 (ip), vehicle: saline with Tween-80) 110 % of control.
With `O=CNC(CSSCC(NC=O)C(=O)O)C(=O)O` (stereo not drawn), the T/C runs as follows: under setting [16], 101 % of control; under setting [17], 101 % of control; under setting [7], 113 % of control; under setting [18], 95 % of control; under setting [9], 90 % of control; under setting [10], 90 % of control.
For `Nc1ccccc1SC(C[N+](=O)[O-])c1ccc2c(c1)OCO2` (stereo not drawn), the T/C under setting [4] is 115 % of control and the T/C under setting [19] is 114 % of control.
In the case of `CC1CC2=C(C1)C(C1(C)C(=O)CC3C(C1=O)C3(C)C)C(C)C2=O` (stereo not drawn), the T/C was 100 % of control (dose: 12.5 mg/kg/injection, schedule: Q01DX001 (ip), vehicle: Klucel (hydroxypropylcellulose) (HPC)); 96 % of control (dose: 25.0 mg/kg/injection, schedule: Q01DX001 (ip), vehicle: Klucel (hydroxypropylcellulose) (HPC)); 102 % of control (dose: 50.0 mg/kg/injection, schedule: Q01DX001 (ip), vehicle: Klucel (hydroxypropylcellulose) (HPC)); 96 % of control under setting [20].
Regarding `[Cl][Mo]([Cl])([Cl])[Cl].[Cl][Mo]([Cl])([Cl])[Cl]`, the T/C runs as follows: under setting [11], 104 % of control; under setting [12], 103 % of control; (dose: 100.0 mg/kg/injection, schedule: Q01DX009 (ip), vehicle: saline) 99 % of control.
Regarding `Cc1cc(C)c2c(c1)sc1n[nH]c(=S)n12`, the T/C under setting [13] was 98 % of control, the T/C under setting [14] was 90 % of control and the T/C under setting [15] is 90 % of control.
On to `CC[C@@]1(O)C[C@H](OC2CC(N(C)C)C(OC3CC4OC5CC(=O)C(C)OC5OC4C(C)O3)C(C)O2)c2c(cc3c(c2O)C(=O)c2c(O)cccc2C3=O)[C@H]1C(=O)OC` (stereo partly drawn), for which the T/C (dose: 0.12 mg/kg/injection, schedule: Q01DX009 (ip), vehicle: water) was 117 % of control; the T/C (dose: 0.25 mg/kg/injection, schedule: Q01DX009 (ip), vehicle: water) was 115 % of control; the T/C (dose: 0.5 mg/kg/injection, schedule: Q01DX009 (ip), vehicle: water) was 110 % of control; the T/C (dose: 1.0 mg/kg/injection, schedule: Q01DX009 (ip), vehicle: water) is 110 % of control; the T/C (dose: 4.0 mg/kg/injection, schedule: Q01DX009 (ip), vehicle: water) was 162 % of control.
For `CC1=CC(=O)C(Cc2ccccc2)(c2ccc(O)cc2O)N1` (stereo not drawn), the T/C reads like this: under setting [20], 101 % of control; (dose: 200.0 mg/kg/injection, schedule: Q01DX001 (ip), vehicle: Klucel (hydroxypropylcellulose) (HPC)) 97 % of control; (dose: 400.0 mg/kg/injection, schedule: Q01DX001 (ip), vehicle: Klucel (hydroxypropylcellulose) (HPC)) 89 % of control.
In the case of `CCOc1ccccc1N=Nc1c(C)nn(C(=S)SC)c1OCC`, the T/C (dose: 30.0 mg/kg/injection, schedule: Q01DX005 (ip), vehicle: Klucel + Tween-80) is 91 % of control; the T/C (dose: 60.0 mg/kg/injection, schedule: Q01DX005 (ip), vehicle: Klucel + Tween-80) is 88 % of control and 95 % of control; the T/C (dose: 120.0 mg/kg/injection, schedule: Q01DX005 (ip), vehicle: Klucel + Tween-80) was 86 % of control.
